# Source: ChEMBL document CHEMBL1201862, “PubChem BioAssay data set” (2004)
#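 Following 48 hours of exposure in 96-well plates, responses at five concentrations were used to interpolate endpoints linearly. GI50: concentration for 50% inhibition of growth.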 The source made the active and inactive calls. Cut-off read from the data, not from the text of the source: active = GI50 up to about 1.1 µM and inactive = higher.
# What was measured:
# Assay in all cases: inhibition of tumour cell growth, NCI panel, 48 h
# ACHN = tested on: ACHN
# COLO 205 = tested on: COLO 205
# EKVX = tested on: EKVX
# HCC 2998 = tested on: HCC 2998
# HOP-18 = tested on: HOP-18
# KM12 = tested on: KM12
# OVCAR-3 = tested on: OVCAR-3
# RXF 393 = tested on: RXF 393
# SK-MEL-28 = tested on: SK-MEL-28
# SK-MEL-2 = tested on: SK-MEL-2
# SK-OV-3 = tested on: SK-OV-3
# SNB-75 = tested on: SNB-75
# TK-10 = tested on: TK-10
# 786-0 = tested on: 786-0
# A549 = tested on: A549
# CCRF-CEM = tested on: CCRF-CEM
# DLD-1 = tested on: DLD-1
# DMS-273 = tested on: DMS-273
# HCT-15 = tested on: HCT-15
# HL-60 = tested on: HL-60
# HOP-62 = tested on: HOP-62
# HT-29 = tested on: HT-29
# IGROV-1 = tested on: IGROV-1
# K562 = tested on: K562
# KM-20L2 = tested on: KM-20L2
# LOX IMVI = tested on: LOX IMVI
# LXFL 529 = tested on: LXFL 529
# M14 = tested on: M14
# M19-MEL = tested on: M19-MEL
# MOLT-4 = tested on: MOLT-4
# Malme-3M = tested on: Malme-3M
# NCI-H226 = tested on: NCI-H226
# NCI-H23 = tested on: NCI-H23
# NCI-H460 = tested on: NCI-H460
# NCI-H522 = tested on: NCI-H522
# OVCAR-8 = tested on: OVCAR-8
# RPMI-8226 = tested on: RPMI-8226
# SF-268 = tested on: SF-268
# SF-295 = tested on: SF-295
# SF-539 = tested on: SF-539
# SN12C = tested on: SN12C
# SNB-19 = tested on: SNB-19
# SNB-78 = tested on: SNB-78
# SR = tested on: SR
# SW-620 = tested on: SW-620
# U-251 = tested on: U-251
# UACC-257 = tested on: UACC-257
# UACC-62 = tested on: UACC-62
# UO-31 = tested on: UO-31
# A498 = tested on: A498
# BT-549 = tested on: BT-549
# DU-145 = tested on: DU-145
# Hs-578T = tested on: Hs-578T
# MCF7 = tested on: MCF7
# MDA-MB-231 = tested on: MDA-MB-231
# MDA-MB-435 = tested on: MDA-MB-435
# MDA-N = tested on: MDA-N
# NCI/ADR-RES = tested on: NCI/ADR-RES
# PC-3 = tested on: PC-3
# T47D = tested on: T47D
# DMS-114 = tested on: DMS-114
# HCT-116 = tested on: HCT-116
# HOP-92 = tested on: HOP-92
# OVCAR-5 = tested on: OVCAR-5
smiles,measurement,setting,value
COc1cc(C2c3cc4c(cc3[C@@H](NCCCN3CCCC3=O)C3COC(=O)[C@H]23)OCO4)cc(OC)c1O (stereo partly drawn),GI50,ACHN,3.41 µM (inactive)
same,GI50,COLO 205,7.76 µM (inactive)
same,GI50,EKVX,> 100 µM (inactive)
same,GI50,HCC 2998,19.1 µM (inactive)
same,GI50,HOP-18,28.7 µM (inactive)
same,GI50,KM12,21 µM (inactive)
same,GI50,OVCAR-3,45.9 µM (inactive)
same,GI50,RXF 393,6.84 µM (inactive)
same,GI50,SK-MEL-28,15.4 µM (inactive)
same,GI50,SK-MEL-2,36.2 µM (inactive)
same,GI50,SK-OV-3,4.29 µM (inactive)
same,GI50,SNB-75,1.67 µM (inactive)
same,GI50,TK-10,30.3 µM (inactive)
CC(=O)OC1[C@H]2c3cc4c(cc3CN3CCC(=C[C@@H]1O)C23)OCO4 (stereo partly drawn),GI50,786-0,> 100 µM (inactive)
same,GI50,A549,> 100 µM (inactive)
same,GI50,ACHN,33.1 µM (inactive)
same,GI50,CCRF-CEM,> 100 µM (inactive)
same,GI50,COLO 205,> 100 µM (inactive)
same,GI50,DLD-1,> 100 µM (inactive)
same,GI50,DMS-273,> 100 µM (inactive)
same,GI50,EKVX,34 µM (inactive)
same,GI50,HCC 2998,34.8 µM (inactive)
same,GI50,HCT-15,> 100 µM
same,GI50,HL-60,> 100 µM (inactive)
same,GI50,HOP-62,> 100 µM (inactive)
same,GI50,HT-29,> 100 µM (inactive)
same,GI50,IGROV-1,> 100 µM (inactive)
same,GI50,K562,> 100 µM (inactive)
same,GI50,KM-20L2,77.8 µM (inactive)
same,GI50,KM12,44.4 µM (inactive)
same,GI50,LOX IMVI,> 100 µM (inactive)
same,GI50,LXFL 529,48.6 µM (inactive)
same,GI50,M14,44.5 µM (inactive)
same,GI50,M19-MEL,> 100 µM (inactive)
same,GI50,MOLT-4,> 100 µM (inactive)
same,GI50,Malme-3M,> 100 µM (inactive)
same,GI50,NCI-H226,34.7 µM (inactive)
same,GI50,NCI-H23,> 100 µM (inactive)
same,GI50,NCI-H460,> 100 µM (inactive)
same,GI50,NCI-H522,> 100 µM (inactive)
same,GI50,OVCAR-3,> 100 µM (inactive)
same,GI50,OVCAR-8,> 100 µM (inactive)
same,GI50,RPMI-8226,> 100 µM (inactive)
same,GI50,RXF 393,> 100 µM (inactive)
same,GI50,SF-268,37.2 µM (inactive)
same,GI50,SF-295,43.6 µM (inactive)
same,GI50,SF-539,> 100 µM (inactive)
same,GI50,SK-MEL-28,23.4 µM (inactive)
same,GI50,SK-OV-3,> 100 µM (inactive)
same,GI50,SN12C,> 100 µM (inactive)
same,GI50,SNB-19,56.8 µM (inactive)
same,GI50,SNB-75,47.6 µM (inactive)
same,GI50,SNB-78,54.2 µM (inactive)
same,GI50,SR,> 100 µM (inactive)
same,GI50,SW-620,> 100 µM (inactive)
same,GI50,TK-10,> 100 µM (inactive)
same,GI50,U-251,> 100 µM (inactive)
same,GI50,UACC-257,46.9 µM (inactive)
same,GI50,UACC-62,53.7 µM (inactive)
same,GI50,UO-31,> 100 µM (inactive)
COc1cc2c(cc1OC)[C@@H](Nc1ccc(C#N)cc1)C1COC(=O)[C@@H]1C2c1cc(OC)c(O)c(OC)c1 (stereo partly drawn),GI50,786-0,0.196 µM (active)
same,GI50,A498,0.042 µM (active)
same,GI50,ACHN,0.0279 µM (active)
same,GI50,BT-549,1.41 µM (inactive)
same,GI50,COLO 205,2.13 µM (inactive)
same,GI50,DLD-1,2.37 µM (inactive)
same,GI50,DMS-273,0.0403 µM (active)
same,GI50,DU-145,0.149 µM (active)
same,GI50,HL-60,< 0.00975 µM (active)
same,GI50,HOP-18,0.805 µM (active)
same,GI50,HT-29,1.87 µM (inactive)
same,GI50,Hs-578T,1.55 µM (inactive)
same,GI50,KM-20L2,3.12 µM (inactive)
same,GI50,KM12,1.59 µM (inactive)
same,GI50,LOX IMVI,0.214 µM (active)
same,GI50,LXFL 529,22.4 µM (inactive)
same,GI50,M19-MEL,2.39 µM (inactive)
same,GI50,MCF7,0.181 µM (active)
same,GI50,MDA-MB-231,2.36 µM (inactive)
same,GI50,MDA-MB-435,6.73 µM (inactive)
same,GI50,MDA-N,3.18 µM (inactive)
same,GI50,MOLT-4,< 0.00975 µM (active)
same,GI50,NCI-H226,0.01 µM (active)
same,GI50,NCI-H460,< 0.00975 µM (active)
same,GI50,NCI/ADR-RES,40.2 µM (inactive)
same,GI50,PC-3,> 100 µM (inactive)
same,GI50,RXF 393,2.09 µM (inactive)
same,GI50,SF-295,0.108 µM (active)
same,GI50,SF-539,0.158 µM (active)
same,GI50,SN12C,0.192 µM (active)
same,GI50,SNB-19,0.344 µM (active)
same,GI50,SNB-75,0.328 µM (active)
same,GI50,SNB-78,5.79 µM (inactive)
same,GI50,SR,< 0.00975 µM (active)
same,GI50,SW-620,0.948 µM (active)
same,GI50,T47D,0.167 µM (active)
same,GI50,UACC-257,28.3 µM (inactive)
same,GI50,UO-31,1.75 µM (inactive)
COc1cccc(C2CC(C)=Nc3c(ccc4c3C(=O)c3ccccc3C4=O)N2)c1O (stereo not drawn),GI50,786-0,> 100 µM (inactive)
same,GI50,A498,> 100 µM (inactive)
same,GI50,A549,> 100 µM (inactive)
same,GI50,ACHN,9.46 µM (inactive)
same,GI50,COLO 205,> 100 µM (inactive)
same,GI50,DLD-1,15 µM (inactive)
same,GI50,DMS-114,> 100 µM (inactive)
same,GI50,EKVX,> 100 µM (inactive)
same,GI50,HCC 2998,> 100 µM (inactive)
same,GI50,HCT-116,> 100 µM (inactive)
same,GI50,HCT-15,26.9 µM
same,GI50,HL-60,5.41 µM (inactive)
same,GI50,HOP-62,3.24 µM (inactive)
same,GI50,HOP-92,> 100 µM (inactive)
same,GI50,HT-29,> 100 µM (inactive)
same,GI50,IGROV-1,> 100 µM (inactive)
same,GI50,K562,> 100 µM (inactive)
same,GI50,KM-20L2,> 100 µM (inactive)
same,GI50,KM12,3.59 µM (inactive)
same,GI50,LXFL 529,> 100 µM (inactive)
same,GI50,M14,9.2 µM (inactive)
same,GI50,M19-MEL,9.62 µM (inactive)
same,GI50,Malme-3M,> 100 µM (inactive)
same,GI50,NCI-H226,33.6 µM (inactive)
same,GI50,NCI-H23,> 100 µM (inactive)
same,GI50,NCI-H460,7.52 µM (inactive)
same,GI50,OVCAR-3,9.71 µM (inactive)
same,GI50,OVCAR-5,> 100 µM (inactive)
same,GI50,OVCAR-8,4.94 µM (inactive)
same,GI50,RPMI-8226,79.3 µM (inactive)
same,GI50,SN12C,> 100 µM (inactive)
same,GI50,SNB-19,> 100 µM (inactive)
same,GI50,SNB-75,> 100 µM (inactive)
same,GI50,SNB-78,> 100 µM (inactive)
same,GI50,SW-620,20.5 µM (inactive)
same,GI50,U-251,3.78 µM (inactive)
same,GI50,UACC-257,3 µM (inactive)
same,GI50,UACC-62,> 100 µM (inactive)
same,GI50,UO-31,33 µM (inactive)
CN(O)C(=O)SCC(NC(=O)CCC(N)C(=O)O)C(=O)NCC(=O)O (stereo not drawn),GI50,CCRF-CEM,1.67 µM (inactive)
same,GI50,DMS-273,1.52 µM (inactive)
same,GI50,HCT-15,24.3 µM
same,GI50,HL-60,318 µM (inactive)
same,GI50,HOP-18,619 µM (inactive)
same,GI50,HOP-62,173 µM (inactive)
same,GI50,HOP-92,294 µM (inactive)
same,GI50,HT-29,1.31 µM (inactive)
same,GI50,K562,305 µM (inactive)
same,GI50,KM12,1050 µM (inactive)
same,GI50,LOX IMVI,1.46 µM (inactive)
same,GI50,MOLT-4,1100 µM (inactive)
same,GI50,NCI-H460,783 µM (inactive)
same,GI50,RPMI-8226,964 µM (inactive)
same,GI50,RXF 393,518 µM (inactive)
same,GI50,SF-268,1630 µM (inactive)
same,GI50,SK-MEL-2,446 µM (inactive)
same,GI50,SK-OV-3,294 µM (inactive)
same,GI50,SNB-75,618 µM (inactive)
same,GI50,SW-620,1760 µM (inactive)
same,GI50,U-251,41.7 µM (inactive)
